Measurements taken from patent US9796700B2 (Celgene CAR LLC, priority 2013, dated 2017).
Where two headings read alike, the source gives them in different places.

How the values were obtained:
Erk1 = Erk1 (Homo sapiens (Human), UniProt P27361); test: Protein Mass Modification Assay (intact protein MALDI); type: binding
How it was run: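 Human Erk1 was incubated 60 min at room temperature with a 10-fold molar excess of compound, then analysed as intact protein by MALDI with sinapinic acid matrix. The centroid mass shift versus untreated protein was divided by compound molecular weight to give percent modified protein.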

[1] = tested on: ERK1 phosphorylation of its substrate RSK in HT29 cells; test: pRSK MSD Assay in HT29 cells; type: cell-based
Description: The protocol below describes an assay to measure the kinase activity of ERK1 to phosphorylate its substrate, RSK, in the presence of a test compound. This experiment was conducted using a Mesoscale Discovery plate. The day before the assay, HT29 cells were split and plated at 50,000 cells/well in complete growth media. After allowing cells to adhere, the media was removed and replaced with media containing 0.1% FBS and incubated overnight. Blank MDS plates were coated with 25 μl/well RSK capture antibody and incubated at 4° C. overnight. The next day, the media was removed and replaced with 100 μl of media containing a test compound and incubated for 120 minutes at 37° C. The media was removed and replaced with 55 μl of well lysis buffer with protease and phosphatase inhibitors provided in the kit, followed by incubation at 4° C. for 30 minutes. 50 μl of lysate was transferred to a blocked MSD plate, followed by incubation at room temperature for 2 hours under constant shaking. The plate was washed 3 times with MSD wash buffer (cat#R617TX), and 25 μl/well phospho-RSK (pRSK) detection antibody was added with an appropriate Sulfo-tagged anti-species detection antibody diluted in 1% BSA in MSD wash buffer. This mixture was incubated for 1 hour at room temperature under constant shaking. The plate was washed 3 times, and 150 μl 1×MSD read buffer was added, followed by signal detection in an MSD plate reader.

MEK1 activated ERK1 = MEK1 activated ERK1 (Homo sapiens (Human), UniProt P27361); test: Omnia continuous-read kinase assay for potency against MEK1 activated ERK1; type: biochemical; settings: MEK1 activated ERK1, WT, ATP at KM
How it was run: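 Apparent IC50 came from initial reaction slopes (RFU vs time) plotted against log inhibitor with a variable-slope fit. Reactions were started with ERK1 (4 nM final) added to 50 μM ATP, roughly at its appKM, and 10 μM Sox-conjugated ST17 peptide in 20 mM Tris pH 7.5, 5 mM MgCl2. Fluorescence was monitored every 71 seconds.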

[2] = Homo sapiens, HT-29, HT29 cells, read-out: ERK1 PRSK MSD HT29 EC50
[3] = HT29 cells, read-out: ERK1 PRSK MSD HT29 EC50
[4] = Homo sapiens, HT-29, read-out: ERK1 PRSK MSD HT29 EC50 (nM)

Sequence of Erk1 (P27361 whole entry, looked up): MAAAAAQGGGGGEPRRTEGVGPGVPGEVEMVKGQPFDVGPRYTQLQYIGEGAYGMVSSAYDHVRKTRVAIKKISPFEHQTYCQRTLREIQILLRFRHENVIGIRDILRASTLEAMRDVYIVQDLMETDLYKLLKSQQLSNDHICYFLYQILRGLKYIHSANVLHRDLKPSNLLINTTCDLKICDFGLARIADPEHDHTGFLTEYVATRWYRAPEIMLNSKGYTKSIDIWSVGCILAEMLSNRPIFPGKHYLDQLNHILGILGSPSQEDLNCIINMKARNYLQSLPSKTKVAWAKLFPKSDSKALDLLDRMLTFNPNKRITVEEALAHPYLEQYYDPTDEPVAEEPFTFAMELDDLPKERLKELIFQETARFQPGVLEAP
Sequence of MEK1 activated ERK1 (P27361 whole entry): as the sequence (P27361 whole entry, looked up) above

| ERK1 Mass Mod (%) (Erk1) | EC50 [1, 2] [nM] | EC50 [1, 3] [nM] | IC50 (MEK1 activated ERK1) [nM] | Structure (SMILES) | EC50 [1, 4] [nM] |
| --- | --- | --- | --- | --- | --- |
| G (proived a mass modification ≦30%) | – | 101 to 500 | – | C=CC(=O)Nc1ccccc1Nc1nc(N[C@H]2CC[C@H](O)CC2)ncc1C(F)(F)F [Compound I-1, Trans-N-(2-((2-((4-hydroxycyclohexyl)amino)-5-(trifluoromethyl)pyrimidin-4-yl)amino)phenyl)acrylamide] | – |
| E (provided a mass modification of ≧70%) | 501 to 999 | – | – | C=CC(=O)Nc1ccccc1Nc1nc(N[C@H]2CC[C@H](C(N)=O)CC2)ncc1C(F)(F)F [Compound I-16, 4-((4-((2-acrylamidophenyl)amino)-5-(trifluoromethyl)pyrimidin-2-yl)amino) -trans-cyclohexanecarboxamide] | – |
| E (provided a mass modification of ≧70%) | 101 to 500 | – | – | C=CC(=O)Nc1ccccc1Nc1nc(Nc2cncc(C(N)=O)c2)ncc1C(F)(F)F [Compound I-63, 5-((4-((2-Acrylamidophenyl)amino)-5-(trifluoromethyl)pyrimidin-2-yl)amino)nicotinamide] | – |
| G (proived a mass modification ≦30%) | 101 to 500 | – | – | C=C(C)S(=O)(=O)Nc1cc(F)ccc1Nc1nc(Nc2cc(C(N)=O)ccc2C)ncc1C(F)(F)F [Compound I-87, 3-((4-((4-Fluoro-2-(1-methylvinylsulfonamido)phenyl)amino)-5-(trifluoromethyl)pyrimidin-2-yl)amino)-4-methylbenzamide] | – |
| E (provided a mass modification of ≧70%) | 101 to 500 | – | – | C=CC(=O)Nc1ccccc1Nc1nc(N[C@H]2CC[C@H](O)CC2)ncc1Cl [Compound I-101] | – |
| E (provided a mass modification of ≧70%) | – | > 1000 | – | C=CC(=O)Nc1ccccc1Nc1nc(N[C@H]2CC[C@@H](O)CC2)ncc1C(F)(F)F [Compound I-109, N-(2-((2-(cis-(4-hydroxycyclohexyl)amino)-5-(trifluoromethyl)pyrimidin-4-yl)amino)phenyl) acrylamide] | – |
| E (provided a mass modification of ≧70%) | > 1000 | – | – | C=CC(=O)Nc1cc(C)ccc1Nc1nc(N[C@H]2CCN(S(=O)(=O)C=C)C2)ncc1C(F)(F)F [Compound I-279, (S)—N-(5-Methyl-2-((5-(trifluoromethyl)-2-((1-(vinylsulfonyl)pyrrolidin-3-yl)amino)pyrimidin-4-yl)amino)phenyl)acrylamide] | – |
| E (provided a mass modification of ≧70%) | – | – | > 1000 | C=CC(=O)Nc1ccccc1Nc1nc(Nc2ccnc(NC)c2)ncc1C(F)(F)F [Compound I-321, N-(2-((2-((2-(methylamino)pyridin-4-yl)amino)-5-(trifluoromethyl)pyrimidin-4-yl)amino)phenyl)acrylamide] | – |
| E (provided a mass modification of ≧70%) | – | – | < 100 | C=CC(=O)Nc1cc(F)ccc1Nc1nc(Nc2cc(OC)ncc2C)ncc1C(F)(F)F [Compound I-322, N-(5-fluoro-2-((2-((2-methoxy-5-methylpyridin-4-yl)amino)-5-(trifluoromethyl)pyrimidin-4-yl)amino)phenyl)acrylamide] | – |
| E (provided a mass modification of ≧70%) | – | – | < 100 | C=CC(=O)Nc1cc(C)ccc1Nc1nc(Nc2cc(OC)nc(N3CC(O)C3)c2)ncc1C(F)(F)F [Compound I-328, N-(2-((2-((2-(3-hydroxyazetidin-1-yl)-6-methoxypyridin-4-yl)amino)-5-(trifluoromethyl)pyrimidin-4-yl)amino)-5-methylphenyl)acrylamide] | – |
| E (provided a mass modification of ≧70%) | – | – | > 1000 | C=CC(=O)Nc1cc(C)ccc1Nc1nc(Nc2cc(OC)nc(N3CCC3)c2)ncc1C(F)(F)F [Compound I-329, N-(2-((2-((2-(azetidin-1-yl)-6-methoxypyridin-4-yl)amino)-5-(trifluoromethyl)pyrimidin-4-yl)amino)-5-methylphenyl)acrylamide] | – |
| E (provided a mass modification of ≧70%) | – | – | > 1000 | C=CC(=O)Nc1cc(C)ccc1Nc1nc(Nc2cc(OC)nc(N3CCC(O)CC3)c2)ncc1C(F)(F)F [Compound I-332, N-(2-((2-((2-(4-hydroxypiperidin-1-yl)-6-methoxypyridin-4-yl)amino)-5-(trifluoromethyl)pyrimidin-4-yl)amino)-5-methylphenyl)acrylamide] | – |
| E (provided a mass modification of ≧70%) | – | – | < 100 | C=CC(=O)Nc1cc(OC)ccc1Nc1nc(Nc2cc(OC)nc(N3CCN(C)CC3)c2)ncc1C(F)(F)F [Compound I-334, N-(5-methoxy-2-((2-((2-methoxy-6-(4-methylpiperazin-1-yl)pyridin-4-yl)amino)-5-(trifluoromethyl)pyrimidin-4-yl)amino)phenyl)acrylamide] | – |
| E (provided a mass modification of ≧70%) | – | – | > 1000 | C=CC(=O)Nc1cc(C)ccc1Nc1nc(Nc2cnnc(OC)c2)ncc1C(F)(F)F [Compound I-335, N-(2-((2-((6-methoxypyridazin-4-yl)amino)-5-(trifluoromethyl)pyrimidin-4-yl)amino)-5-methylphenyl)acrylamide] | – |
| E (provided a mass modification of ≧70%) | – | – | > 1000 | C=CC(=O)Nc1cc(C)ccc1Nc1nc(Nc2nc(OC)ccc2Cl)ncc1C(F)(F)F [Compound I-360, N-(2-((2-((3-chloro-6-methoxypyridin-2-yl)amino)-5-(trifluoromethyl)pyrimidin-4-yl)amino)-5-methylphenyl)acrylamide] | – |
| E (provided a mass modification of ≧70%) | – | – | < 100 | C=CC(=O)Nc1cc(C)ccc1Nc1nc(Nc2cc(OC)cnc2Cl)ncc1C(F)(F)F [Compound I-361, N-(2-((2-((2-chloro-5-methoxypyridin-3-yl)amino)-5-(trifluoromethyl)pyrimidin-4-yl)amino)-5-methylphenyl)acrylamide] | – |
| E (provided a mass modification of ≧70%) | – | – | > 1000 | C#CCOc1cc(C)c(Nc2ncc(C(F)(F)F)c(Nc3ccc(C)cc3NC(=O)C=C)n2)cc1C(N)=O [Compound I-362, 5-((4-((2-acrylamido-4-methylphenyl)amino)-5-(trifluoromethyl)pyrimidin-2-yl)amino)-4-methyl-2-(prop-2-yn-1-yloxy)benzamide] | – |
| E (provided a mass modification of ≧70%) | – | – | > 1000 | C=CC(=O)Nc1cc(C)ccc1Nc1nc(Nc2nc(O)ncc2Cl)ncc1C(F)(F)F [Compound I-363, N-(2-((2-((5-chloro-2-hydroxypyrimidin-4-yl)amino)-5-(trifluoromethyl)pyrimidin-4-yl)amino)-5-methylphenyl)acrylamide] | – |
| E (provided a mass modification of ≧70%) | – | – | < 100 | C=CC(=O)Nc1cc(C)ccc1Nc1nc(Nc2nc(O)ncc2C)ncc1C(F)(F)F [Compound I-364, N-(2-((2-((2-hydroxy-5-methylpyrimidin-4-yl)amino)-5-(trifluoromethyl)pyrimidin-4-yl)amino)-5-methylphenyl)acrylamide] | – |
| E (provided a mass modification of ≧70%) | – | – | > 1000 | C=CC(=O)Nc1cc(C)ccc1Nc1nc(Nc2cc(O)ncc2C)ncc1C(F)(F)F [Compound I-365, N-(2-((2-((2-hydroxy-5-methylpyridin-4-yl)amino)-5-(trifluoromethyl)pyrimidin-4-yl)amino)-5-methylphenyl)acrylamide] | – |

| Structure (SMILES) | ERK1 Mass Mod (%) (Erk1) | EC50 [1, 2] [nM] | EC50 [1, 3] [nM] | IC50 (MEK1 activated ERK1) [nM] | EC50 [1, 4] [nM] |
| --- | --- | --- | --- | --- | --- |
| C=CC(=O)Nc1ccccc1Nc1nc(N[C@@H]2CCC[C@H](C(=O)O)C2)ncc1Cl (racemic) [Compound I-133, Rac-3-((4-((2-acrylamidophenyl)amino)-5-chloropyrimidin-2-yl)amino)-cis-cyclohexanecarboxylic acid] | E (provided a mass modification of ≧70%) | > 1000 | – | – | – |
| C=CC(=O)Nc1cc(C)ccc1Nc1nc(Nc2cc(C(C)=O)ccc2C)ncc1C(F)(F)F [Compound I-84, N-(2-((2-((5-Acetyl-2-methylphenyl)amino)-5-(trifluoromethyl)pyrimidin-4-yl)amino)-5-methylphenyl)acrylamide] | E (key: E: provided a mass modification of ≧70%; F: provided a mass modification of 31-69%; G: proived a mass modification ≦30%) | – | – | – | 101 to 500 |
| C=CC(=O)Nc1ccccc1Nc1nc(Nc2cc(OC)nc(N3CCN(C(C)=O)CC3)c2)ncc1C(F)(F)F [Compound I-92] | E (provided a mass modification of ≧70%) | < 100 | – | – | – |
| C=CC(=O)Nc1cc(C)ccc1Nc1nc(Nc2cc(OC)nc(OC)c2)ncc1C(F)(F)F [Compound I-96] | E (key: E: provided a mass modification of ≧70%; F: provided a mass modification of 31-69%; G: proived a mass modification ≦30%) | – | – | – | < 100 |
